Reference: US20260070945A1, “MACROCYCLIC IMMUNOMODULATORS” (Bristol-Myers Squibb Company, priority 2022, published 2026)
Where a SMILES comes first, the peptide text is derived from it. Bridges are numbered along the chain shown (N, C = ends). [ ]: non-standard residue; d: D form. The star is where a group is joined. Phe(4-COOH) = N[C@@H](Cc1ccc(C(=O)O)cc1)C(=O)O; Bip = N[C@@H](Cc1ccc(-c2ccccc2)cc1)C(=O)O; hArg = N=C(N)NCCCC[C@H](N)C(=O)O; 4Pal = N[C@@H](Cc1ccncc1)C(=O)O; Cha = N[C@@H](CC1CCCCC1)C(=O)O; 12Ado = NCCCCCCCCCCCC(=O)O; Carboxymethyl = O=C(O)C*; NMeA = CN[C@@H](C)C(=O)O; Orn = NCCC[C@H](N)C(=O)O; Aun = NCCCCCCCCCCC(=O)O; Dab = NCC[C@H](N)C(=O)O; Dap = NC[C@H](N)C(=O)O; AEEA = NCCOCCOCC(=O)O

molecular target: T1, PD-1/PD-L1 interaction (PE-labeled human PD-L1-Ig binding to Jurkat cell line over-expressing human PD-1) (Homo sapiens, UniProt Q15116); experiment: Jurkat-PD-1 Cell Binding High-Content Screening Assay (CBA); settings: Jurkat-hPD-1 cells, PE-labeled PD-L1-Ig 20 nM final; read-out: Jurkat HPD1 PDL1 IC50
T1 construct: expressed in transfected cells; host or cells: Jurkat
T1 sequence (Q15116 25-288): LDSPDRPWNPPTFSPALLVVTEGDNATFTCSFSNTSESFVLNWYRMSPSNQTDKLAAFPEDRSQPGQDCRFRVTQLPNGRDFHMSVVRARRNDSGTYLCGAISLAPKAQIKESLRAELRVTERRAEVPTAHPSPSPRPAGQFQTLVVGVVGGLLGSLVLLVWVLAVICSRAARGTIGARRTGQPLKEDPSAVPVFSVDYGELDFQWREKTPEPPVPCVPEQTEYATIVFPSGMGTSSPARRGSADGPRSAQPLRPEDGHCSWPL
In short: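 Jurkat cells overexpressing human PD-1 (8×10^3/well, DMEM + 10% FCS) preincubated with compound 2 h at 37 °C, then PE-labelled human PD-L1-Ig (20 nM final) for 1 h. Cells fixed in paraformaldehyde with Hoechst 33342; bound PD-L1 quantified by high-content imaging.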

Row | Structure (SMILES) | IC50 [nM]
1 | CC(C)C[C@@H]1NC(=O)[C@H](Cc2c[nH]c3ccccc23)NC(=O)[C@H](CC(=O)O)NC(=O)[C@H](Cc2ccc(C(=O)O)cc2)NC(=O)[C@H](Cc2ccc(OCC(=O)O)cc2)NC(=O)CSC[C@@H](C(=O)N[C@@H](CCCN)C(=O)NCCOCCOCC(=O)NCCCCCCCCCCC(=O)O)NC(=O)[C@H](CCCN)NC(=O)[C@H](C(C)C)NC(=O)[C@H](CC2CCCCC2)NC(=O)[C@H](CCN)NC(=O)[C@@H](CC(C)C)NC(=O)[C@H](C)N(C)C(=O)[C@H](C(C)C)NC(=O)[C@H](Cc2ccc(-c3ccccc3)cc2)NC1=O [Example 2135] ({CH2CO}-Y(Carboxymethyl)[Phe(4-COOH)]DWL[Bip]V[NMeA][dL][Dab][Cha]V[Orn]C[Orn][AEEA][Aun]-OH; thioether N-14) | 13.2
2 | CC(C)C[C@@H]1NC(=O)[C@H](Cc2c[nH]c3ccccc23)NC(=O)[C@H](CC(=O)O)NC(=O)[C@H](Cc2ccc(OCC(=O)O)cc2)NC(=O)[C@H](CCCNC(=N)N)NC(=O)CSC[C@@H](C(=O)N[C@@H](CCCN)C(=O)NCCOCCOCC(=O)NCCCCCCCCCCC(=O)O)NC(=O)[C@H](CO)NC(=O)[C@H](C(C)C)NC(=O)[C@H](CC2CCCCC2)NC(=O)[C@H](CCN)NC(=O)[C@@H](CC(C)C)NC(=O)[C@H](C)N(C)C(=O)[C@H](C(C)C)NC(=O)[C@H](Cc2ccc(-c3ccccc3)cc2)NC1=O [Example 2139] ({CH2CO}-RY(Carboxymethyl)DWL[Bip]V[NMeA][dL][Dab][Cha]VSC[Orn][AEEA][Aun]-OH; thioether N-14) | 10.9
3 | CC(C)C[C@@H]1NC(=O)[C@H](Cc2c[nH]c3ccccc23)NC(=O)[C@H](CC(=O)O)NC(=O)[C@H](Cc2ccc(OCC(=O)O)cc2)NC(=O)[C@H](Cc2ccncc2)NC(=O)CSC[C@@H](C(=O)N[C@@H](CCCN)C(=O)NCCOCCOCC(=O)NCCCCCCCCCCC(=O)O)NC(=O)[C@H](CO)NC(=O)[C@H](C(C)C)NC(=O)[C@H](CC2CCCCC2)NC(=O)[C@H](CCN)NC(=O)[C@@H](CC(C)C)NC(=O)[C@H](C)N(C)C(=O)[C@H](C(C)C)NC(=O)[C@H](Cc2ccc(-c3ccccc3)cc2)NC1=O [Example 2142] ({CH2CO}-[4Pal]Y(Carboxymethyl)DWL[Bip]V[NMeA][dL][Dab][Cha]VSC[Orn][AEEA][Aun]-OH; thioether N-14) | 11.6
4 | CC(C)C[C@@H]1NC(=O)[C@H](Cc2c[nH]c3ccccc23)NC(=O)[C@H](CC(=O)O)NC(=O)[C@H](Cc2ccc(C(=O)O)cc2)NC(=O)[C@H](Cc2ccc(OCC(=O)O)cc2)NC(=O)CSC[C@@H](C(=O)N[C@@H](CCCN)C(=O)NCCOCCOCC(=O)NCCCCCCCCCCC(=O)O)NC(=O)[C@H](CN)NC(=O)[C@H](C(C)C)NC(=O)[C@H](CC2CCCCC2)NC(=O)[C@H](CC(N)=O)NC(=O)[C@@H](CC(C)C)NC(=O)[C@H](C)N(C)C(=O)[C@H](C(C)C)NC(=O)[C@H](Cc2ccc(-c3ccccc3)cc2)NC1=O [Example 2143] ({CH2CO}-Y(Carboxymethyl)[Phe(4-COOH)]DWL[Bip]V[NMeA][dL]N[Cha]V[Dap]C[Orn][AEEA][Aun]-OH; thioether N-14) | 61.3
5 | CC(C)C[C@@H]1NC(=O)[C@H](Cc2c[nH]c3ccccc23)NC(=O)[C@H](CC(=O)O)NC(=O)[C@H](Cc2ccc(C(=O)O)cc2)NC(=O)[C@H](Cc2ccc(OCC(=O)O)cc2)NC(=O)CSC[C@@H](C(=O)N[C@@H](CCCN)C(=O)NCCOCCOCC(=O)NCCCCCCCCCCC(=O)O)NC(=O)[C@H](CCCCN)NC(=O)[C@H](C(C)C)NC(=O)[C@H](CC2CCCCC2)NC(=O)[C@H](CC(N)=O)NC(=O)[C@@H](CC(C)C)NC(=O)[C@H](C)N(C)C(=O)[C@H](C(C)C)NC(=O)[C@H](Cc2ccc(-c3ccccc3)cc2)NC1=O [Example 2145] ({CH2CO}-Y(Carboxymethyl)[Phe(4-COOH)]DWL[Bip]V[NMeA][dL]N[Cha]VKC[Orn][AEEA][Aun]-OH; thioether N-14) | 14.3
6 | CC(C)C[C@@H]1NC(=O)[C@H](Cc2c[nH]c3ccccc23)NC(=O)[C@H](CC(=O)O)NC(=O)[C@H](Cc2c[nH]cn2)NC(=O)[C@H](Cc2ccc(OCC(=O)O)cc2)NC(=O)CSC[C@@H](C(=O)N[C@@H](CCCN)C(=O)NCCOCCOCC(=O)NCCCCCCCCCCC(=O)O)NC(=O)[C@H](CO)NC(=O)[C@H](C(C)C)NC(=O)[C@H](CC2CCCCC2)NC(=O)[C@H](CCN)NC(=O)[C@@H](CC(C)C)NC(=O)[C@H](C)N(C)C(=O)[C@H](C(C)C)NC(=O)[C@H](Cc2ccc(-c3ccccc3)cc2)NC1=O [Example 2146] ({CH2CO}-Y(Carboxymethyl)HDWL[Bip]V[NMeA][dL][Dab][Cha]VSC[Orn][AEEA][Aun]-OH; thioether N-14) | 12.7
7 | CC(C)C[C@@H]1NC(=O)[C@H](Cc2c[nH]c3ccccc23)NC(=O)[C@H](CC(=O)O)NC(=O)[C@H](Cc2ccc(O)cc2)NC(=O)[C@H](Cc2ccncc2)NC(=O)CSC[C@@H](C(=O)N[C@@H](CCCN)C(=O)NCCOCCOCC(=O)NCCCCCCCCCCC(=O)O)NC(=O)[C@H](CO)NC(=O)[C@H](C(C)C)NC(=O)[C@H](CC2CCCCC2)NC(=O)[C@H](CCN)NC(=O)[C@@H](CC(C)C)NC(=O)[C@H](C)N(C)C(=O)[C@H](C(C)C)NC(=O)[C@H](Cc2ccc(-c3ccccc3)cc2)NC1=O [Example 2147] ({CH2CO}-[4Pal]YDWL[Bip]V[NMeA][dL][Dab][Cha]VSC[Orn][AEEA][Aun]-OH; thioether N-14) | 10.4

The remaining compounds from weak to strong by IC50, led by results:

Row | IC50 [nM] | Structure (SMILES)
8 | 143 | CC(C)C[C@@H]1NC(=O)[C@H](Cc2c[nH]c3ccccc23)NC(=O)[C@H](CC(=O)O)NC(=O)[C@H](Cc2ccc(C(=O)O)cc2)NC(=O)[C@H](Cc2ccc(OCC(=O)O)cc2)NC(=O)CSC[C@@H](C(=O)N[C@@H](CCCN)C(=O)NCCOCCOCC(=O)NCCCCCCCCCCC(=O)O)NC(=O)[C@H](CCCCN)NC(=O)[C@H](C(C)C)NC(=O)[C@H](CC2CCCCC2)NC(=O)[C@H](CC(=O)O)NC(=O)[C@@H](CC(C)C)NC(=O)[C@H](C)N(C)C(=O)[C@H](C(C)C)NC(=O)[C@H](Cc2ccc(-c3ccccc3)cc2)NC1=O [Example 2136] ({CH2CO}-Y(Carboxymethyl)[Phe(4-COOH)]DWL[Bip]V[NMeA][dL]D[Cha]VKC[Orn][AEEA][Aun]-OH; thioether N-14)
9 | 30.4 | CC(C)C[C@@H]1NC(=O)[C@H](Cc2c[nH]c3ccccc23)NC(=O)[C@H](CC(=O)O)NC(=O)[C@H](Cc2ccc(C(=O)O)cc2)NC(=O)[C@H](Cc2ccc(OCC(=O)O)cc2)NC(=O)CSC[C@@H](C(=O)N[C@@H](CCCN)C(=O)NCCOCCOCC(=O)NCCCCCCCCCCC(=O)O)NC(=O)[C@H](CCCCN)NC(=O)[C@H](C(C)C)NC(=O)[C@H](CC2CCCCC2)NC(=O)[C@H](CCC(=O)O)NC(=O)[C@@H](CC(C)C)NC(=O)[C@H](C)N(C)C(=O)[C@H](C(C)C)NC(=O)[C@H](Cc2ccc(-c3ccccc3)cc2)NC1=O [Example 2137] ({CH2CO}-Y(Carboxymethyl)[Phe(4-COOH)]DWL[Bip]V[NMeA][dL]E[Cha]VKC[Orn][AEEA][Aun]-OH; thioether N-14)
10 | 19.3 | CC(C)C[C@@H]1NC(=O)[C@H](Cc2c[nH]c3ccccc23)NC(=O)[C@H](CC(=O)O)NC(=O)[C@H](Cc2ccc(C(=O)O)cc2)NC(=O)[C@H](Cc2ccc(OCC(=O)O)cc2)NC(=O)CSC[C@@H](C(=O)N[C@@H](CCCN)C(=O)NCCOCCOCC(=O)NCCCCCCCCCCC(=O)O)NC(=O)[C@H](CCCN)NC(=O)[C@H](C(C)C)NC(=O)[C@H](CC2CCCCC2)NC(=O)[C@H](CC(N)=O)NC(=O)[C@@H](CC(C)C)NC(=O)[C@H](C)N(C)C(=O)[C@H](C(C)C)NC(=O)[C@H](Cc2ccc(-c3ccccc3)cc2)NC1=O [Example 2144] ({CH2CO}-Y(Carboxymethyl)[Phe(4-COOH)]DWL[Bip]V[NMeA][dL]N[Cha]V[Orn]C[Orn][AEEA][Aun]-OH; thioether N-14)
11 | 15.7 | CC(C)C[C@@H]1NC(=O)[C@H](Cc2c[nH]c3ccccc23)NC(=O)[C@H](CC(=O)O)NC(=O)[C@H](CCCCNC(=N)N)NC(=O)[C@H](Cc2ccc(OCC(=O)O)cc2)NC(=O)CSC[C@@H](C(=O)N[C@@H](CCCN)C(=O)NCCOCCOCC(=O)NCCCCCCCCCCC(=O)O)NC(=O)[C@H](CO)NC(=O)[C@H](C(C)C)NC(=O)[C@H](CC2CCCCC2)NC(=O)[C@H](CCN)NC(=O)[C@@H](CC(C)C)NC(=O)[C@H](C)N(C)C(=O)[C@H](C(C)C)NC(=O)[C@H](Cc2ccc(-c3ccccc3)cc2)NC1=O [Example 2140] ({CH2CO}-Y(Carboxymethyl)[hArg]DWL[Bip]V[NMeA][dL][Dab][Cha]VSC[Orn][AEEA][Aun]-OH; thioether N-14)
12 | 14.2 | CC(C)C[C@@H]1NC(=O)[C@H](Cc2c[nH]c3ccccc23)NC(=O)[C@H](CC(=O)O)NC(=O)[C@H](Cc2ccc(C(=O)O)cc2)NC(=O)[C@H](Cc2ccc(OCC(=O)O)cc2)NC(=O)CSC[C@@H](C(=O)N[C@@H](CCCN)C(=O)NCCOCCOCC(=O)NCCCCCCCCCCC(=O)O)NC(=O)[C@H](CO)NC(=O)[C@H](C(C)C)NC(=O)[C@H](CC2CCCCC2)NC(=O)[C@H](CCCN)NC(=O)[C@@H](CC(C)C)NC(=O)[C@H](C)N(C)C(=O)[C@H](C(C)C)NC(=O)[C@H](Cc2ccc(-c3ccccc3)cc2)NC1=O [Example 2138] ({CH2CO}-Y(Carboxymethyl)[Phe(4-COOH)]DWL[Bip]V[NMeA][dL][Orn][Cha]VSC[Orn][AEEA][Aun]-OH; thioether N-14)
13 | 13.2 | CC(C)C[C@@H]1NC(=O)[C@H](Cc2c[nH]c3ccccc23)NC(=O)[C@H](CC(=O)O)NC(=O)[C@H](Cc2ccncc2)NC(=O)[C@H](Cc2ccc(OCC(=O)O)cc2)NC(=O)CSC[C@@H](C(=O)N[C@@H](CCCN)C(=O)NCCOCCOCC(=O)NCCCCCCCCCCCC(=O)O)NC(=O)[C@H](CO)NC(=O)[C@H](C(C)C)NC(=O)[C@H](CC2CCCCC2)NC(=O)[C@H](CCN)NC(=O)[C@@H](CC(C)C)NC(=O)[C@H](C)N(C)C(=O)[C@H](C(C)C)NC(=O)[C@H](Cc2ccc(-c3ccccc3)cc2)NC1=O [Example 2141] ({CH2CO}-Y(Carboxymethyl)[4Pal]DWL[Bip]V[NMeA][dL][Dab][Cha]VSC[Orn][AEEA][12Ado]-OH; thioether N-14)
